The IC50 is the concentration at which inhibition is half-maximal. A word on the logD: it is the decadic logarithm of the distribution of all forms, ionised or not, between an organic phase and buffer at a given pH. Lower therefore signals lower lipophilicity. As a reminder, the bioavailability is the share of a dose that reaches the circulation, judged against a reference dose that is usually intravenous. A low value points to little systemic uptake. The MRT is the average time that molecules of a dose stay in the body. The term clearance denotes a measure of how efficiently the substance is removed, as volume per time. One may read the half-life as how long it takes for the measured level to halve.

For data set [1], the target named is T1, Arginase-2, mitochondrial (Homo sapiens, UniProt P78540).
T1 sequence (P78540 whole entry): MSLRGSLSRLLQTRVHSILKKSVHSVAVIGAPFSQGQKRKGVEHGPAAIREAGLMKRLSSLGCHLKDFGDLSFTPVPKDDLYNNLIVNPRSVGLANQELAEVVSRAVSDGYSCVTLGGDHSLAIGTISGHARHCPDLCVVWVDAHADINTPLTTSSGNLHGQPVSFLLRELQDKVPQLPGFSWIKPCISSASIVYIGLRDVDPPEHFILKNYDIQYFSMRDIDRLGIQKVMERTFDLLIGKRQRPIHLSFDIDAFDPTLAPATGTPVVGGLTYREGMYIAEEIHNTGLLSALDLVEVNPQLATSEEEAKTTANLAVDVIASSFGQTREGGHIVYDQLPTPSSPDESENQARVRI
The data set is described as follows: Inhibition of human arginase-2 assessed as L-arginine conversion to L-ornithine measured as urea level after 1 hr by colorimetric assay.

For a further data set, the target named is T2, Arginase-1 (Homo sapiens, UniProt P05089).
T2 sequence (P05089 whole entry): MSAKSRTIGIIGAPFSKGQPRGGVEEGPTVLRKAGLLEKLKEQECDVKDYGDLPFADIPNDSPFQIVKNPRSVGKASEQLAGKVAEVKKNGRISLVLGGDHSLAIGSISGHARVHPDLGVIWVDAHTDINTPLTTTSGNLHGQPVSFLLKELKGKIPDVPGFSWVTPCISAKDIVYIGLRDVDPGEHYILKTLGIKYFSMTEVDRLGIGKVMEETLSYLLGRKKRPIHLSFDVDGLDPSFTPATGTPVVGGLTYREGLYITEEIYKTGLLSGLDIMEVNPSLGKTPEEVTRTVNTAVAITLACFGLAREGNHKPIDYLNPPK
The data set is described as follows: Inhibition of human arginase-1 assessed as L-arginine conversion to L-ornithine measured as urea level after 1 hr by colorimetric assay.

Data set [2] can be described thus: Octanol-phosphate buffer partition coefficient, log D of the compound by shake-flask method. It is filed as physicochemical.
The nature of data set [3]: Bioavailability in ip dosed rat. Type of data set: ADME, organism-based. As to conditions: in vivo.
The test system of data set [4] is Rattus norvegicus. The data set is described as follows: AUC (0 to t) in iv dosed rat. It is filed as ADME, organism-based, Plasma. To be noted: in vivo.
Data set [5] relates to Rattus norvegicus. The data set can be described thus: AUC (0 to infinity) in iv dosed rat. It is filed as ADME, organism-based, Plasma. More on the design: route intravenous, time infinity. As to conditions: in vivo.
The nature of data set [6]: Mean residence time in rat. Type of data set: ADME, organism-based. To be noted: in vivo.
Data set [7] can be described thus: Clearance in iv dosed rat. Type of data set: ADME, organism-based. To be noted: in vivo.
Data set [8] can be described thus: Volume of distribution at steady state in iv dosed rat. It is filed as ADME, organism-based. To be noted: in vivo, read-out: Vdss.
Another data set deals with Plasma. The data set is described as follows: Initial plasma concentration in rat. It is filed as ADME.
The nature of data set [9]: Half life in iv dosed rat. It is filed as ADME, organism-based. To be noted: in vivo.
Data set [10] in a line: Oral bioavailability in rat. It is filed as ADME, organism-based. As to conditions: in vivo.

For the compound `NC(CCCCB(O)O)(C(=O)O)C1CCNCC1` (racemic), the IC50 came out at 640 nM in data set [1] and 380 nM at Arginase-1. The logD in [2] is -2.8. For the same compound, the bioavailability in data set [3] was < 5%.
The compound `NC(CCCCB(O)O)(C(=O)O)C1CC2CCC(C1)N2Cc1ccc(Cl)c(Cl)c1` (racemic) yielded an AUCt in the data set with Rattus norvegicus [4] of 0.951 kg·h/L. The compound also registered an AUC in the data set on Rattus norvegicus [5] of 0.994 kg·h/L. The compound further displayed an MRT in data set [6] of 0.912 h. The compound further returned a clearance in data set [7] of 16.8 mL/min/kg. In data set [8], the Vd is 0.918 L/kg. Further, the IC50 in data set [1] is 23 nM; on Arginase-1, 21 nM. The compound further registered a C0 in the data set on Plasma of 4770 ng/mL. Further, the half-life in data set [9] was 3.12 h. For the same compound, the results for the bioavailability in [10] and in data set [3] were 0.25% and > 50%, respectively. For the same compound, the logD in data set [2] stood at 2.4.
For the compound `NC(CCCCB(O)O)(C(=O)O)C1CCN(CCCc2ccc(Cl)cc2Cl)CC1` (racemic), the IC50 in [1] came to 50 nM; at Arginase-1 it was 100 nM. In [2], this compound had a logD of 1.2. Besides, the bioavailability in data set [3] is < 5%.
Regarding `CC(C)CCN1CCC(C(N)(CCCCB(O)O)C(=O)O)CC1` (racemic), the results for the IC50 (in data set [1]; at Arginase-1) were 230 nM and 180 nM, respectively. Besides, the logD in data set [2] was -1.1. Also, the bioavailability in [3] was < 5%.
As to `NC(CCCCB(O)O)(C(=O)O)C1CCN(C(=S)NCc2ccc(Cl)cc2)CC1` (racemic), the IC50 in [1] was 1120 nM; on Arginase-1, 330 nM. For the same compound, the bioavailability in [3] was < 5%.
On to `N[C@@H](CCCCB(O)O)C(=O)O`, for which the results for the IC50 (in data set [1]; at Arginase-1) were 2150 nM and 1470 nM, respectively.
As for `Cc1ccc(S(=O)(=O)N2CCC(C(N)(CCCCB(O)O)C(=O)O)CC2)cc1` (racemic), the half-inhibitory concentration (IC50) came to 4650 nM in [1] and 6650 nM at Arginase-1. Also, in [3], the bioavailability was < 5%.
Regarding `NC(CCCCB(O)O)(C(=O)O)C1CC2CCC(C1)N2` (racemic), the IC50 is 85 nM in data set [1] and 80 nM at Arginase-1. In data set [3], the bioavailability was < 5%.
As for `NC(CCCCB(O)O)(C(=O)O)C1CCN(Cc2ccc(Cl)c(Cl)c2)CC1` (racemic), the AUCt with Rattus norvegicus [4] is 2.05 kg·h/L. Also, the AUC with Rattus norvegicus [5] is 2.12 kg·h/L. The same compound displayed an MRT in [6] of 2.14 h. Besides, the clearance in data set [7] came out at 7.87 mL/min/kg. In [8], the Vd amounted to 1.51 L/kg. In addition, the IC50 in data set [1] amounted to 290 nM; at Arginase-1 it was 200 nM. In the data set on Plasma, this compound returned a C0 of 4720 ng/mL. For the same compound, the half-life in data set [9] is 7.83 h. Also, the results for the bioavailability in data set [10] and in [3] were 4.8% and > 50%, respectively. The compound further returned a logD in data set [2] of 1.5.
Turning to `NC(CCCCB(O)O)(C(=O)O)C1CC2CCC(C1)N2Cc1ccc(F)c(F)c1` (racemic), the values for the IC50 (in [1]; at Arginase-1) were 33 nM and 22 nM, respectively. Also, the bioavailability in data set [3] was < 5%.
With `NC(CCCCB(O)O)(C(=O)O)C1CCN(CCc2ccc(Cl)cc2Cl)CC1` (racemic), the IC50 came to 330 nM in [1] and 210 nM at Arginase-1. Besides, the bioavailability in data set [3] was < 5%.
In the case of `NC(CCCCB(O)O)(C(=O)O)C1CCN(CCCc2ccc(C(F)(F)F)cc2)CC1` (racemic), the IC50 was 70 nM in data set [1] and 120 nM at Arginase-1. Besides, in [3], the bioavailability is < 5%.
With `NC(CCCCB(O)O)(C(=O)O)C1CCN(C(=O)Nc2ccc(Cl)cc2)CC1` (racemic), the figures for the IC50 (in [1]; on Arginase-1) were 1100 nM and 720 nM, respectively. Moreover, the logD in data set [2] stood at 0.5. In data set [3], the bioavailability is < 5%.
Consider `NC(CCCCB(O)O)(C(=O)O)C1CCN(Cc2ccc(Cl)cc2)CC1` (racemic), for which the IC50 in data set [1] was found to be 240 nM; at Arginase-1, 190 nM. The compound also gave a logD in data set [2] of 0.3. The bioavailability in data set [3] was < 5%.
In the case of `NC(CCCCB(O)O)(C(=O)O)C1CC2CCC(C1)N2Cc1ccc(Cl)cc1` (racemic), the IC50 was 30 nM in [1] and 17 nM on Arginase-1. For the same compound, in [3], the bioavailability is < 5%.
`NC(CCCCB(O)O)(C(=O)O)C1CCN(Cc2ccccc2)CC1` (racemic): the IC50 was 230 nM in data set [1] and 200 nM at Arginase-1. Besides, the logD in data set [2] was -0.4. Also, in data set [3], the bioavailability is < 5%.
As for `NC(CCCCB(O)O)(C(=O)O)C1CC2CCC(C1)N2Cc1ccccc1` (racemic), the IC50 was found to be 47 nM in [1] and 24 nM at Arginase-1. In addition, the bioavailability in [3] is < 5%.

For the origin of these results see ChEMBL document CHEMBL2417426, “Synthesis of quaternary α-amino acid-based arginase inhibitors via the Ugi reaction” (Bioorg Med Chem Lett, 2013).
